Assay results published in ChEMBL document CHEMBL5036347, “Design of the naphthyl-diarylpyrimidines as potent non-nucleoside reverse transcriptase inhibitors (NNRTIs) via structure-based extension into the entrance channel” (Eur J Med Chem, 2021).
Converted amounts (≈) assume the structure as drawn.

Tests used:
[1] = system: Human immunodeficiency virus 1; assay: Anti-HIV activity against HIV-1 IIIB infected in human MT4 cells assessed as reduction in virus-induced cytopathic effect incubated for 5 days by MTT assay; assay type: functional, organism-based; settings: Human immunodeficiency virus 1, IIIB, MT4, 120 h
[2] = system: Human immunodeficiency virus 2; assay: Anti-HIV activity against HIV2 ROD infected in human MT4 cells assessed as reduction in virus-induced cytopathic effect incubated for 5 days by MTT assay; assay type: functional, organism-based; settings: Human immunodeficiency virus 2, ROD, MT4, 120 h
[3] = Cytotoxicity against human MT4 cells assessed as reduction in cell viability incubated for 5 days by MTT assay; assay type: cell-based; settings: human, MT4 cells; time 5 day
[4] = system: Human immunodeficiency virus 1; assay: Antiviral activity against HIV1 harboring reverse transcriptase L100I mutant infected in human MT4 cells assessed as protection against virus-induced cytopathic effect incubated for 5 days by MTT assay; assay type: functional, organism-based; settings: Human immunodeficiency virus 1, MT4, 120 h
[5] = system: Human immunodeficiency virus 1; assay: Antiviral activity against HIV1 harboring reverse transcriptase K103N mutant infected in human MT4 cells assessed as protection against virus-induced cytopathic effect incubated for 5 days by MTT assay; assay type: functional, organism-based; settings: Human immunodeficiency virus 1, MT4, 120 h
[6] = system: Human immunodeficiency virus 1; assay: Antiviral activity against HIV1 harboring reverse transcriptase Y181C mutant infected in human MT4 cells assessed as protection against virus-induced cytopathic effect incubated for 5 days by MTT assay; assay type: functional, organism-based; settings: Human immunodeficiency virus 1, MT4, 120 h
[7] = system: Human immunodeficiency virus 1; assay: Antiviral activity against HIV1 harboring reverse transcriptase Y188L mutant infected in human MT4 cells assessed as protection against virus-induced cytopathic effect incubated for 5 days by MTT assay; assay type: functional, organism-based; settings: Human immunodeficiency virus 1, MT4, 120 h
[8] = system: Human immunodeficiency virus 1; assay: Antiviral activity against HIV1 harboring reverse transcriptase E138K mutant infected in human MT4 cells assessed as protection against virus-induced cytopathic effect incubated for 5 days by MTT assay; assay type: functional, organism-based; settings: Human immunodeficiency virus 1, MT4, 120 h
[9] = system: Human immunodeficiency virus 1; assay: Antiviral activity against HIV1 harboring reverse transcriptase F227L/V106A mutant infected in human MT4 cells assessed as protection against virus-induced cytopathic effect incubated for 5 days by MTT assay; assay type: functional, organism-based; settings: Human immunodeficiency virus 1, MT4, 120 h
[10] = Resistance fold, ratio of EC50 for HIV1 harboring reverse transcriptase Y181C mutant […] to EC50 for wild type HIV1 […]; assay type: functional
[11] = Resistance fold, ratio of EC50 for HIV1 harboring reverse transcriptase K103N mutant […] to EC50 for wild type HIV1 […]; assay type: functional
[12] = system: Human immunodeficiency virus 1; assay: Antiviral activity against HIV1 harboring reverse transcriptase K103N/Y181C double mutant infected in human MT4 cells assessed as protection against virus-induced cytopathic effect incubated for 5 days by MTT assay; assay type: functional, organism-based; settings: Human immunodeficiency virus 1, MT4, 120 h
[13] = Selectivity index, ratio of CC50 for cytotoxicity against human MT4 cells to EC50 of Anti-HIV activity against HIV-1 IIIB infected in human MT4; assay type: toxicity, cell-based; settings: read-out: Selectivity Index
[14] = Resistance fold, ratio of EC50 for HIV1 harboring reverse transcriptase Y188L mutant […] to EC50 for wild type HIV1 […]; assay type: functional
[15] = Resistance fold, ratio of EC50 for HIV1 harboring reverse transcriptase E138K mutant […] to EC50 for wild type HIV1 […]; assay type: functional
[16] = Resistance fold, ratio of EC50 for HIV1 harboring reverse transcriptase F227L/V106A double mutant […] to EC50 for wild type HIV1 […]; assay type: functional
[17] = Resistance fold, ratio of EC50 for HIV1 harboring reverse transcriptase K103N/Y181C double mutant […] to EC50 for wild type HIV1 […]; assay type: functional
[18] = target: Human immunodeficiency virus type 1 reverse transcriptase (Human immunodeficiency virus 1, UniProt Q72547); assay: Inhibition of wild type HIV1 reverse transcriptase using oligo(dT)16 as primer measured after 40 mins by picogreen-dye based spectrofluorimetric analysis
[19] = Resistance fold, ratio of EC50 for HIV1 harboring reverse transcriptase L100I mutant […] to EC50 for wild type HIV1 […]; assay type: functional
[20] = Water solubility of compound at pH 2 at 0.1 to 10 mg by HPLC-UV analysis; assay type: physicochemical; settings: dose 0.1-10 mg
[21] = Water solubility of compound at pH 7 at 0.1 to 10 mg by HPLC-UV analysis; assay type: physicochemical; settings: dose 0.1-10 mg
[22] = Water solubility of compound at pH 7.4 at 0.1 to 10 mg by HPLC-UV analysis; assay type: physicochemical; settings: dose 0.1-10 mg

SMILES | EC50 [1] [µM] | EC50 [2] [µM] | CC50 at 120 h [3] [µM] | EC50 [4] [µM] | EC50 [5] [µM] | EC50 [6] [µM] | EC50 [7] [µM] | EC50 [8] [µM] | EC50 [9] [µM] | Ratio EC50 [10] | Ratio EC50 [11] | EC50 [12] [µM] | selectivity ratio [13] | Ratio EC50 [14] | Ratio EC50 [15] | Ratio EC50 [16] | Ratio EC50 [17] | IC50 [18] [µM] | Ratio EC50 [19] | further results
COc1cc2cc(C#N)ccc2c(OC)c1Oc1cc(NC2CCOCC2)nc(Nc2ccc(C#N)cc2)n1 | 0.04 | > 1000 | > 125 | 1.51 | 0.09 | 0.9 | 2.62 | 0.21 | > 1000 | 23 | 1 | 4.34 | > 5970 | 65 | 3 | >25000 | 108 | 0.3 | – | –
Cc1cn([C@H]2C[C@H](N=[N+]=[N-])[C@@H](CO)O2)c(=O)[nH]c1=O [ZIDOVUDINE] | 0.029 | 0.02 | > 2 | 0.01 | 0.032 | 0.031 | 0.029 | 0.051 | 0.031 | 1 | 2 | 0.033 | > 240 | 1 | 2 | 1 | 1 | – | – | –
CCCCCNc1cc(Oc2c(OC)cc3cc(C#N)ccc3c2OC)nc(Nc2ccc(C#N)cc2)n1 | 0.043 | > 1000 | > 125 | 1.43 | 0.041 | 0.5 | 50.7 | 0.096 | > 1000 | 12 | 1 | 6.37 | > 5670 | 1171 | 2 | >23095 | 147 | 0.02 | 33 | –
CCC(CC)Nc1cc(Oc2c(OC)cc3cc(C#N)ccc3c2OC)nc(Nc2ccc(C#N)cc2)n1 | 0.13 | > 1000 | > 125 | 5.87 | 0.11 | 1.33 | 24.4 | 0.27 | > 1000 | 10 | 1 | 70.5 | > 1930 | 192 | 2 | >7862 | 555 | 0.6 | 46 | –
Nc1ccn([C@@H]2CS[C@H](CO)O2)c(=O)n1 [LAMIVUDINE] | 5.76 | – | > 20 | 2.13 | – | 4.57 | – | 8.49 | 3.07 | 1 | 1 | 6.01 | > 15 | 0 | 1 | 1 | 1 | – | 0.4 | –
COc1cc2cc(C#N)ccc2c(OC)c1Oc1cc(NCCCO)nc(Nc2ccc(C#N)cc2)n1 | 0.014 | 4.1 | 23.5 | 0.31 | 0.012 | 0.11 | 0.44 | 0.055 | 1.63 | 8 | 1 | 0.23 | > 1630 | 31 | 4 | 113 | 16 | 0.19 | – | –
COc1cc2cc(C#N)ccc2c(OC)c1Oc1cc(NC2CCCCC2)nc(Nc2ccc(C#N)cc2)n1 | 0.1 | – | > 125 | 39.8 | 0.13 | 1.27 | 50.3 | 0.57 | > 1000 | 12 | 1 | 97.9 | > 2290 | 479 | 2 | >9533 | 933 | 0.44 | 379 | IC50 [2]: > 1000 µM
O=C1Nc2ccc(Cl)cc2[C@@](C#CC2CC2)(C(F)(F)F)O1 [EFAVIRENZ] | 0.0043 | – | – | 0.095 | 0.14 | 0.0074 | 0.0073 | 0.0053 | 0.33 | – | – | 0.22 | – | – | – | – | – | – | – | –
COc1cc2cc(C#N)ccc2c(OC)c1Oc1cc(NCC2CCOCC2)nc(Nc2ccc(C#N)cc2)n1 | 0.022 | > 1000 | > 125 | 0.15 | 0.016 | 0.053 | 0.37 | 0.064 | 2.48 | 2 | 2 | 0.24 | > 10700 | 17 | 4 | 113 | 11 | 0.2 | – | –
COc1cc2cc(C#N)ccc2c(OC)c1Oc1cc(NC2CCOC2)nc(Nc2ccc(C#N)cc2)n1 (configuration not stated) | 0.013 | > 1000 | > 125 | 0.23 | 0.028 | 0.085 | 0.56 | 0.047 | 2.01 | 7 | 1 | 0.64 | > 19000 | 43 | 2 | 156 | 49 | 0.18 | 19 | –
COc1cc2cc(C#N)ccc2c(OC)c1Oc1cc(N2CCOCC2)nc(Nc2ccc(C#N)cc2)n1 | 0.038 | > 1000 | > 125 | 0.52 | 0.13 | 0.29 | 2.34 | 0.051 | – | 8 | 3 | 23.9 | > 6510 | 62 | 1 | >26525 | 634 | 0.25 | 14 | IC50 [9]: > 1000 µM
COc1cc2cc(C#N)ccc2c(OC)c1Oc1cc(NCC(F)(F)F)nc(Nc2ccc(C#N)cc2)n1 | 0.035 | 186 | > 125 | 0.49 | 0.04 | 0.36 | 1.8 | – | 5.91 | 10 | 1 | 2.52 | > 6820 | 51 | 2 | 168 | 71 | 0.14 | 14 | IC50 [8]: 0.073 µM
COc1cc2cc(C#N)ccc2c(OC)c1Oc1cc(NC(C)C)nc(Nc2ccc(C#N)cc2)n1 | – | > 1000 | > 125 | – | 0.47 | – | – | 0.047 | – | – | 19 | – | > 10400 | – | 2 | – | – | 0.14 | – | –
CCCCNc1cc(Oc2c(OC)cc3cc(C#N)ccc3c2OC)nc(Nc2ccc(C#N)cc2)n1 | – | > 1000 | > 125 | 0.63 | 0.031 | – | 3.12 | 0.064 | > 1000 | – | 1 | 1.52 | > 9600 | 119 | 2 | >38461 | 58 | 0.17 | 24 | –
Cc1cc(C#N)cc(C)c1Oc1nc(Nc2ccc(C#N)cc2)nc(N)c1Br [ETRAVIRINE] | – | – | – | 0.014 | 0.0038 | 0.021 | 0.03 | 0.021 | 0.027 | – | – | 0.052 | – | – | – | – | – | – | – | solubility [20]: 127 µg/mL (≈ 292 µM); solubility [21]: < 1 µg/mL; solubility [22]: 1 µg/mL (≈ 2.3 µM)
